The values that follow come from patent US7863449B2, “Modulators of muscarinic receptors” (Vertex Pharmaceuticals Incorporated, priority 2004, dated 2011).

The term Emax denotes the maximal effect, on the per cent scale that the assay sets.

One test addresses T1, M1 muscarinic receptor (Homo sapiens, UniProt P11229).
T1 construct: expressed in transfected cells; host or cells: CHO (M1-CHO)
T1 sequence (P11229 1-460): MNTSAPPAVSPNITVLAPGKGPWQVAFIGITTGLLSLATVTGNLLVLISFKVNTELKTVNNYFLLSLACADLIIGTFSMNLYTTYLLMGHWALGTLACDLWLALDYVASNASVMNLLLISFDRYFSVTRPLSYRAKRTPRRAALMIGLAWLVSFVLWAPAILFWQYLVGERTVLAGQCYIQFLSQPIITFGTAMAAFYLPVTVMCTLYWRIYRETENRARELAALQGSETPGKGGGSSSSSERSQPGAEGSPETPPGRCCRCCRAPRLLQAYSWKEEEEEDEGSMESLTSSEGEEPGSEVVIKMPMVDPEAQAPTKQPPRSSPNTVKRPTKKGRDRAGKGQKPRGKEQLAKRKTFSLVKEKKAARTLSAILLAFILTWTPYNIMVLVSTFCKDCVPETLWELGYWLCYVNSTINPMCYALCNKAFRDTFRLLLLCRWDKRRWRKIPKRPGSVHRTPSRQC
Nature of the test: Functional mobilization of intracellular calcium (FLIPR), M1-CHO cells. The class given is cell-based. As to conditions: for Emax: 100% efficacy is the maximum response obtained using Carbachol as a control; for M1 Activity: M1-CHO cells, FLIPR calcium mobilization. A digest of the protocol: (§1)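 CHO cells expressing M1 or M4, loaded with Fluo-3 AM or Calcium 3 dye with 1 mM probenecid, 0.5% DMSO final. Agonist mode: compound added directly; antagonist mode: 15 min pre-incubation (or co-application) before carbachol at EC80. Fluorescence recorded 60 s on FLIPR.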
(A change in cytosolic calcium serves as a functional read-out for many receptors and channels.)

The target of the next test is T2, M4 muscarinic receptor (Homo sapiens, UniProt P08173).
T2 construct: expressed in transfected cells; host or cells: CHO (M4-CHO)
T2 sequence (P08173 1-479): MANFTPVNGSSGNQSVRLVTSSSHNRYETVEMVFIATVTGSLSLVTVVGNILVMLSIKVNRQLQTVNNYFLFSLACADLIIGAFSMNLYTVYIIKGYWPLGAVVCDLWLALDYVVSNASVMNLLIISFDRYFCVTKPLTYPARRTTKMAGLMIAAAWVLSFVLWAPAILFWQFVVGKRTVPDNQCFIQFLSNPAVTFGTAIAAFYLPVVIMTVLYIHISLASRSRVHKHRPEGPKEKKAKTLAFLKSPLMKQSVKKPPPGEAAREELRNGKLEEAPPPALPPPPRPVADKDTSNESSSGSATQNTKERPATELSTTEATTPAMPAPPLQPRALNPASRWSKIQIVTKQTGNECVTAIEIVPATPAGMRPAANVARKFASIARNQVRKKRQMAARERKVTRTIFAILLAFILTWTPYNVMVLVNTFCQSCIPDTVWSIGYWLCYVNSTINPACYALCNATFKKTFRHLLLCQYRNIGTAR
The test is described as follows: Functional mobilization of intracellular calcium (FLIPR), M4-CHO cells. The class given is cell-based. Conditions: for Emax: 100% efficacy is the maximum response obtained using Carbachol as a control; for M4 Activity: M4-CHO cells, FLIPR calcium mobilization. A digest of the protocol:
as §1

For `CN(C)C(=O)N1Cc2ccccc2C2(CCN(C3CC4CCC(C3)N4C(=O)OC3CCC3)CC2)C1` (stereo not drawn) [compound 327], at M1 muscarinic receptor, the Emax was 25 to 100% and the “M1 Activity” value is recorded as “+++ (activity was measured to be less than 1.0 μM)”. At M4 muscarinic receptor, the Emax lay in the range of 25 to 100% and the “M4 Activity” value is listed as “+++ (activity was measured to be less than 1.0 μM)”.

In the case of `CCOC(=O)N1CCC(N2CCC3(CC2)CN(C(=O)c2snnc2C)Cc2ccccc23)CC1` [compound 328], on M1 muscarinic receptor, the maximum response (Emax) lay in the range of 25 to 100% and the “M1 Activity” value is on record as “+++ (activity was measured to be less than 1.0 μM)”. Besides, at M4 muscarinic receptor, the Emax lay in the range of 25 to 100% and the “M4 Activity” value is given as “+++ (activity was measured to be less than 1.0 μM)”.

Turning to `CCOC(=O)N1CCC(CN2CCC3(CC2)CN(C(=O)c2cnon2)Cc2ccccc23)CC1` [compound 329], on M1 muscarinic receptor, the maximal effect (Emax) lay in the range of 25 to 100% and the “M1 Activity” value is “+++ (activity was measured to be less than 1.0 μM)”. Besides, on M4 muscarinic receptor, the Emax lay in the range of 25 to 100% and the “M4 Activity” value is “+++ (activity was measured to be less than 1.0 μM)”.

Consider `CCOC(=O)N1CCC(CN2CCC3(CC2)CN(C(=O)c2ccccn2)Cc2ccccc23)CC1` [compound 330], for which, at M1 muscarinic receptor, the Emax lay within 25 to 100% and the “M1 Activity” value is “+++ (activity was measured to be less than 1.0 μM)”. In addition, at M4 muscarinic receptor, the Emax fell in the range of 25 to 100% and the “M4 Activity” value is “+++ (activity was measured to be less than 1.0 μM)”.

In the case of `CC(=O)N1Cc2ccccc2C2(CCN(Cc3cc(C)ccc3F)CC2)C1` [compound 331], at M1 muscarinic receptor, the Emax is under 25% and the “M1 Activity” value is “+ (activity was measured to be greater than 5.0 μM)”. Also, at M4 muscarinic receptor, the Emax was under 25% and the “M4 Activity” value was “+ (activity was measured to be greater than 5.0 μM)”.

Take `CC(=O)N1Cc2ccccc2C2(CCN(Cc3cccc(C)n3)CC2)C1` [compound 334]: at M1 muscarinic receptor, the Emax was under 25% and the “M1 Activity” value is on record as “+ (activity was measured to be greater than 5.0 μM)”. Further, at M4 muscarinic receptor, the Emax was under 25% and the “M4 Activity” value is “+ (activity was measured to be greater than 5.0 μM)”.

In the case of `CC(=O)N1Cc2ccccc2C2(CCN(Cc3ccc(C(C)O)cc3)CC2)C1` (stereo not drawn) [compound 335], on M1 muscarinic receptor, the Emax was under 25% and the “M1 Activity” value is “+ (activity was measured to be greater than 5.0 μM)”. Further, on M4 muscarinic receptor, the Emax is under 25% and the “M4 Activity” value is “+ (activity was measured to be greater than 5.0 μM)”.

Take `CCOC(=O)N1CCC(N2CCC3(CC2)CN(S(=O)(=O)c2ccc(F)cc2)Cc2ccccc23)CC1` [compound 337]: on M1 muscarinic receptor, the Emax lay in the range of 25 to 100% and the “M1 Activity” value is on record as “+++ (activity was measured to be less than 1.0 μM)”. On M4 muscarinic receptor, the Emax is 25 to 100% and the “M4 Activity” value is recorded as “+++ (activity was measured to be less than 1.0 μM)”.

Regarding `CCOC(=O)N1CCC(N2CCC3(CC2)CN(C(=O)Oc2ccc(F)cc2)Cc2ccccc23)CC1` [compound 342], at M1 muscarinic receptor, the Emax was in the range of 25 to 100% and the “M1 Activity” value was “+++ (activity was measured to be less than 1.0 μM)”. On M4 muscarinic receptor, the Emax lay within 25 to 100% and the “M4 Activity” value is on record as “+++ (activity was measured to be less than 1.0 μM)”.

As to `CCOC(=O)N1C2CCC1CC(N1CCC3(CC1)CN(C(=O)N1CCCCC1)Cc1ccccc13)C2` (stereo not drawn) [compound 344], on M1 muscarinic receptor, the Emax fell in the range of 25 to 100% and the “M1 Activity” value is on record as “+++ (activity was measured to be less than 1.0 μM)”. In addition, on M4 muscarinic receptor, the Emax is 25 to 100% and the “M4 Activity” value is recorded as “+++ (activity was measured to be less than 1.0 μM)”.

In the case of `CCOC(=O)N1CCC(CN2CCC3(CC2)CN(S(=O)(=O)c2ccc(F)cc2)Cc2ccccc23)CC1` [compound 345], on M1 muscarinic receptor, the Emax lay within 25 to 100% and the “M1 Activity” value is “+++ (activity was measured to be less than 1.0 μM)”. In addition, at M4 muscarinic receptor, the Emax lay in the range of 25 to 100% and the “M4 Activity” value is recorded as “+++ (activity was measured to be less than 1.0 μM)”.

As to `CC(C)(C)CCN1CCC2(CC1)NC(=O)c1ccccc12` [compound 346], on M1 muscarinic receptor, the Emax lay in the range of 25 to 100% and the “M1 Activity” value is given as “++ (activity was measured to be from 1.0 μM to 5.0 μM)”. Also, on M4 muscarinic receptor, the Emax fell in the range of 25 to 100% and the “M4 Activity” value is “++ (activity was measured to be from 1.0 μM to 5.0 μM)”.

As to `O=C1c2ccccc2C2(CCN(C3CCCCCC3)CC2)N1Cc1ccccc1` [compound 347], on M1 muscarinic receptor, the Emax fell in the range of 25 to 100% and the “M1 Activity” value is reported as “+ (activity was measured to be greater than 5.0 μM)”. On M4 muscarinic receptor, the Emax was under 25% and the “M4 Activity” value is recorded as “+ (activity was measured to be greater than 5.0 μM)”.

Take `CC(=O)N1Cc2ccccc2C2(CCN(C3CC4CCC(C3)N4C(=O)OC3CCC3)CC2)C1` (stereo not drawn) [compound 348]: at M1 muscarinic receptor, the Emax lay within 25 to 100% and the “M1 Activity” value was “+++ (activity was measured to be less than 1.0 μM)”. Moreover, on M4 muscarinic receptor, the Emax lay within 25 to 100% and the “M4 Activity” value is “+++ (activity was measured to be less than 1.0 μM)”.

With `CC(=O)N1Cc2ccccc2C2(CCN(C3CCCCCC3)CC2)C1` [compound 349], at M1 muscarinic receptor, the maximum response (Emax) fell in the range of 25 to 100% and the “M1 Activity” value is listed as “+++ (activity was measured to be less than 1.0 μM)”. Also, on M4 muscarinic receptor, the Emax was 25 to 100% and the “M4 Activity” value is listed as “+++ (activity was measured to be less than 1.0 μM)”.

With `CCOC(=O)N1C2CCC1CC(N1CCC3(CC1)CN(C(=O)NC(C)C)Cc1ccccc13)C2` (stereo not drawn) [compound 350], at M1 muscarinic receptor, the maximal response (Emax) lay in the range of 25 to 100% and the “M1 Activity” value is recorded as “+++ (activity was measured to be less than 1.0 μM)”. Further, at M4 muscarinic receptor, the Emax is 25 to 100% and the “M4 Activity” value is on record as “+++ (activity was measured to be less than 1.0 μM)”.

As to `Cc1cc(C(=O)N2Cc3ccccc3C3(CCN(C4CC5CCC(C4)N5C(=O)O[C@@H]4CCOC4)CC3)C2)nn1C` (stereo partly drawn) [compound 351], on M1 muscarinic receptor, the Emax was in the range of 25 to 100% and the “M1 Activity” value is given as “+++ (activity was measured to be less than 1.0 μM)”. On M4 muscarinic receptor, the Emax was in the range of 25 to 100% and the “M4 Activity” value is given as “+++ (activity was measured to be less than 1.0 μM)”.

With `O=C1NC2(CCN(CC3CCOC3)CC2)c2ccccc21` (stereo not drawn) [compound 352], on M1 muscarinic receptor, the Emax was under 25% and the “M1 Activity” value is given as “+ (activity was measured to be greater than 5.0 μM)”. In addition, on M4 muscarinic receptor, the Emax was under 25% and the “M4 Activity” value is reported as “+ (activity was measured to be greater than 5.0 μM)”.

As for `CCCOC(=O)N1C2CCC1CC(N1CCC3(CC1)CN(S(=O)(=O)CCC)Cc1ccccc13)C2` (stereo not drawn) [compound 353], at M1 muscarinic receptor, the Emax was in the range of 25 to 100% and the “M1 Activity” value is reported as “+++ (activity was measured to be less than 1.0 μM)”. Moreover, at M4 muscarinic receptor, the Emax was 25 to 100% and the “M4 Activity” value is recorded as “+++ (activity was measured to be less than 1.0 μM)”.

In the case of `CC(=O)N1Cc2ccccc2C2(CCN(C3CC4CCC(C3)N4C(=O)O[C@H]3CCOC3)CC2)C1` (stereo partly drawn) [compound 354], on M1 muscarinic receptor, the Emax lay within 25 to 100% and the “M1 Activity” value was “+++ (activity was measured to be less than 1.0 μM)”. Moreover, on M4 muscarinic receptor, the Emax is 25 to 100% and the “M4 Activity” value is “+++ (activity was measured to be less than 1.0 μM)”.

Consider `CCOC(=O)N1C2CCC1CC(N1CCC3(CC1)CN(S(=O)(=O)c1ccc(C#N)cc1)Cc1ccccc13)C2` (stereo not drawn) [compound 355], for which, on M1 muscarinic receptor, the Emax was 25 to 100% and the “M1 Activity” value is listed as “+++ (activity was measured to be less than 1.0 μM)”. Moreover, on M4 muscarinic receptor, the Emax is 25 to 100% and the “M4 Activity” value is reported as “+++ (activity was measured to be less than 1.0 μM)”.

Consider `CCOC(=O)N1CCC(CN2CCC3(CC2)CN(S(=O)(=O)N(C)C)Cc2ccccc23)CC1` [compound 356], for which, on M1 muscarinic receptor, the maximum response (Emax) lay within 25 to 100% and the “M1 Activity” value is recorded as “+++ (activity was measured to be less than 1.0 μM)”. For the same compound, on M4 muscarinic receptor, the Emax lay in the range of 25 to 100% and the “M4 Activity” value was “+++ (activity was measured to be less than 1.0 μM)”.

For `CCCOC(=O)N1C2CCC1CC(N1CCC3(CC1)CN(C(C)=O)Cc1ccccc13)C2` (stereo not drawn) [compound 357], at M1 muscarinic receptor, the Emax is 25 to 100% and the “M1 Activity” value was “+++ (activity was measured to be less than 1.0 μM)”. At M4 muscarinic receptor, the Emax is 25 to 100% and the “M4 Activity” value was “+++ (activity was measured to be less than 1.0 μM)”.

`CCOC(=O)N1C2CCC1CC(N1CCC3(CC1)CN(C(=O)NC1CCCCC1)Cc1ccccc13)C2` (stereo not drawn) [compound 358]: on M1 muscarinic receptor, the Emax is 25 to 100% and the “M1 Activity” value is given as “+++ (activity was measured to be less than 1.0 μM)”. In addition, on M4 muscarinic receptor, the Emax lay within 25 to 100% and the “M4 Activity” value is recorded as “+++ (activity was measured to be less than 1.0 μM)”.
